The values that follow come from ChEMBL document CHEMBL1150365, “Improved synthesis of antibacterial 3-substituted 6-anilinouracils” (Bioorg Med Chem Lett, 2008).

The test system of data set [1] is Streptococcus pneumoniae. Briefly: Antibacterial activity against Streptococcus pneumoniae 1707/4 in presence of bovine serum by broth microdilution method. In kind it is functional. (In general: In broth dilution the organism is exposed to a series of concentrations in liquid medium.)
The test system of data set [2] is Enterococcus faecalis. Briefly: Antibacterial activity against Enterococcus faecalis ICB 27159 in presence of bovine serum by broth microdilution method. In kind it is functional.
Data set [3] relates to Staphylococcus aureus. Briefly: Antibacterial activity against Staphylococcus aureus 133 by broth microdilution method. In kind it is functional.
Data set [4] is described as follows: Inhibition of Staphylococcus aureus DNA polymerase 3C.
A short description of data set [5]: Aqueous solubility of the compound. It counts as physicochemical. To be noted: water.
Data set [6] concerns Staphylococcus aureus. Nature of the data set: Antibacterial activity in Staphylococcus aureus injected CFU mouse at 100 mg/kg, ip after 30 mins. In kind it is functional, organism-based. Also on record: dose 100 mg/kg.

Structures are written as SMILES. Converted amounts (≈) assume the structure as drawn. The source made the active and inactive calls. The calls are words filed in the database; no cut-off is given here.

A word on the MIC: it is the lowest concentration found to suppress growth. By IC50 is commonly meant the midpoint of a concentration-inhibition curve. Low readings indicate inhibition by little substance, high ones a need for much substance. `CCOC(=O)Cn1c(=O)cc(Nc2ccc3c(c2)CCC3)[nH]c1=O`: the MIC in data set [1] amounted to 16 µg/mL; in data set [2], 64 µg/mL; in data set [3], 16 µg/mL (≈ 48.6 µM). The molecule also yielded a 50% inhibitory concentration (IC50) in data set [4] of 1500 nM.

As for `COC(=O)c1ccc(Cn2c(=O)cc(Nc3ccc4c(c3)CCC4)[nH]c2=O)o1`, the MIC stood at 16 µg/mL in data set [1], 32 µg/mL in data set [2] and 32 µg/mL (≈ 83.9 µM) in data set [3]. In data set [4], this molecule gave an IC50 of 2000 nM.

With `O=C(Cn1c(=O)cc(Nc2ccc3c(c2)CCC3)[nH]c1=O)c1ccc(Br)cc1`, the MIC in data set [1], in data set [2] and in data set [3] was above 256 µg/mL each time. Also, the IC50 in data set [4] is above 13000 nM.

What is called solubility is the dissolved amount per volume that the medium holds. With `O=c1cc(Nc2ccc3c(c2)CCC3)[nH]c(=O)n1CC1CC1`, the MIC was 4 µg/mL in data set [1], 16 µg/mL in data set [2] and 4 µg/mL (≈ 13.5 µM) in data set [3]. The solubility in data set [5] was determined as 3.3 µg/mL (≈ 11.1 µM). In addition, half-maximal inhibition in data set [4] (IC50) was put at 300 nM. Further, the result in data set [6] was inactive.

For `CN(C)C(=O)c1cc(Cn2c(=O)cc(Nc3ccc4c(c3)CCC4)[nH]c2=O)on1`, the MIC in data set [1] was found to be 16 µg/mL; in data set [2], 32 µg/mL; in data set [3] it was 32 µg/mL (≈ 80.9 µM). The molecule also yielded an IC50 in data set [4] of 1200 nM.

Consider `CCc1cc(Nc2cc(=O)n(CCCO)c(=O)[nH]2)ccc1C`, for which the values for the MIC in data set [1], in data set [2] and in data set [3] were 8 µg/mL, 16 µg/mL and 8 µg/mL (≈ 26.4 µM), respectively. For the same molecule, the IC50 in data set [4] was determined as 300 nM.
